# Paper PMC3790851, “Improved Mass Spectrometry Assay For Plasma Hepcidin: Detection and Characterization of a Novel Hepcidin Isoform” (PLoS ONE, 2013)
# Assays:
# [1] = molecular target: T1, green fluorescent protein (GFP)-fused human ferroportin (Homo sapiens, UniProt Q9NP59); test: Hepcidin bioactivity assay: GFP-ferroportin internalization and degradation; assay type: cell-based; conditions: stable cell line, inducible GFP-fused human ferroportin; fluorescence in triplicate wells; four parameter logistic fit; 95% confidence interval: hepcidin-24 126.8 nM - 289.2 nM, hepcidin-25 12.2 nM –17.8 nM; read-out: EC50 for ferroportin internalization and degradation
# T1 construct: expressed in transfected cells
# T1 sequence (Q9NP59 1-571): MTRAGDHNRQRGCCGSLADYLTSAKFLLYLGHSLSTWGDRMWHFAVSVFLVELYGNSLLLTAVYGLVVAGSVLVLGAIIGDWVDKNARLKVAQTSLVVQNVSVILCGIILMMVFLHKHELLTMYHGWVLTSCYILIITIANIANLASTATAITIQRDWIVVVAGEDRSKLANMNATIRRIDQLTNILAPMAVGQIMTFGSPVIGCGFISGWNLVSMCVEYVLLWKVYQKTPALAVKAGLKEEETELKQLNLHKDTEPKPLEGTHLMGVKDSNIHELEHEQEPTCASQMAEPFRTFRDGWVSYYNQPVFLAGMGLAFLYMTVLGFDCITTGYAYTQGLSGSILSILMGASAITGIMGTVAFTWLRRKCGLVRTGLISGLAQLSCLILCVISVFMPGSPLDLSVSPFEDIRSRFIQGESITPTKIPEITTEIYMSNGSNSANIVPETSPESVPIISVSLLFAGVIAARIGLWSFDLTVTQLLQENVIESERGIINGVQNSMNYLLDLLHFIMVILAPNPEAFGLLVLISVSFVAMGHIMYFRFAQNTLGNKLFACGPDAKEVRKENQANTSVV
# Description: A stable cell line engineered for inducible expression of green fluorescent protein (GFP)-fused human ferroportin was used as a test system to determine hepcidin-24 activity relative to hepcidin-25, 22 and 20. In this cell system, ferroportin internalization and degradation provided a means to quantify hepcidin activity. The assay was implemented basically as described by Nemeth et al., [33] except that fluorescence was quantified in triplicate wells on a microplate reader. To determine EC50 values for hepcidin-25 and hepcidin-24, a curve was fitted by nonlinear regression with a four parameter logistic equation using Prism v5 (GraphPad).
# Figure 5 Hepcidin-mediated ferroportin internalization. Different concentrations of synthetic hepcidin-25, -24, -22 and -20 (indicated in nM on the horizontal axis) were added to the growth medium of a stable cell line that expresses green fluorescent protein-fused ferroportin (GFP-FPN). Hepcidin-mediated GFP-FPN internalization and degradation was quantified by measuring cellular fluorescence levels in arbitrary units.
# in vitro [2] = conditions: for remaining at 4320 h: human
# Description: Serum samples from healthy controls that were used in this study concerned leftover aliquots (stored at −80°C) that were collected in February 2011 [18]. In addition, citrate plasma, heparin plasma, EDTA plasma and serum for stability studies was drawn in the afternoon from healthy volunteers (n = 5), known for having fasted morning hepcidin levels above the lower limit of detection (>0.5 nM) in September 2012. Fresh samples were measured within 2–4 hrs hours after blood drawing and stored in aliquots at various temperatures for prolonged incubation.
# Heparin plasma QC samples (n = 2), high and low (HiQC2011 and LoQC2011), were obtained in November 2011 by pooling sample leftover samples from IC patients and iron-depleted HFE-hemochromatosis patients, respectively. Serum QC samples (n = 2), high and low (HiQC2009 and LoQC2009), were obtained in April 2009 from 2 blood donors from the local blood donation centre. To obtain the high QC sample, serum of one of the donors with a native hepcidin concentration <1 nM was spiked with synthetic hepcidin-25 from Peptide International (PI, Louisville, KY, USA) to a concentration of 9 nM.
# WCX-TOF MS was performed between October 2011 and March 2013 as described previously by a combination of WCX bead-based hepcidin enrichment followed by TOF-MS [6]. As internal standards for quantification were used: i) synthetic hepcidin-24 (custom made Peptide International, 2673.9 Da; [5]); ii) novel custom made heavy hepcidin-25^+40 (see below, Table 1). Mass-to-charge (m/z) spectra were generated by using MALDI-TOF MS (Microflex LT, Bruker Daltonics). Spectra were analyzed by using Bruker Daltonics FlexAnalysis software. A detailed protocol of this method is described in [6]. Total hepcidin concentration was defined as the sum of hepcidin-25, -24, -22, and -20 concentrations.
# Using the novel heavy hepcidin-25 internal standard, we assessed changes in hepcidin-25 and the smaller isoforms in various samples containing various anticoagulants ex vivo at room temperature (RT), 4°C, −20°C and −80°C. More specifically, changes in hepcidin concentrations relative to those found in freshly collected samples were determined i) at storage at RT and 4°C on day 0 (fresh samples), 1 (14–22 hrs), 2, 3, and 7 days after sampling/storage, ii) at −20°C after 1 week, and after 1, 4 and 6 months of storage and iii) at −80°C at after 6 months of storage. We also assessed the effect of the addition of protease inhibitors on the stability of hepcidin concentrations of heparin plasma of IC patients at RT during a 1 week storage. To this end, before storage we used 1 tablet of protease inhibitor (Complete, Mini, Roche Diagnostics, Mannheim, Germany) solved in 200 µL PBS, of which 20 µL was added to 1 ml plasma. Finally, we used our QC charts to assess the stability of hepcidin concentrations in heparin plasma and serum QC aliquots stored at −80°C for 2 years.
# in vitro [3] = conditions: human, heparin plasma
# [4] = serum from 12 healthy controls; stable for; ref 35 Itkonen et al.; cited from earlier work
# in vitro [5] = conditions: human
# 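Throughout, for Hepcidin level after one week at -20°C, EDTA plasma: hepcidin in stored plasma or serum quantified by MALDI-TOF MS against a heavy hepcidin-25 internal standard, expressed relative to concentrations in freshly collected samples.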
# 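Throughout, for no significant change at -20°C for: hepcidin in stored plasma or serum quantified by MALDI-TOF MS against a heavy hepcidin-25 internal standard, expressed relative to concentrations in freshly collected samples.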
# 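Throughout, for stable at -20°C for: hepcidin in stored plasma or serum quantified by MALDI-TOF MS against a heavy hepcidin-25 internal standard, expressed relative to concentrations in freshly collected samples.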
smiles,measurement,setting,value
CC[C@H](C)[C@@H]1NC(=O)[C@@H](NC(=O)[C@@H](NC(=O)[C@@H]2CCCN2C(=O)[C@H](Cc2ccccc2)NC(=O)[C@H](Cc2c[nH]cn2)NC(=O)[C@@H](NC(=O)[C@@H](N)CC(=O)O)[C@@H](C)O)[C@@H](C)CC)CSSC[C@@H](C(=O)N[C@@H](CCCCN)C(=O)N[C@H](C(=O)O)[C@@H](C)O)NC(=O)[C@@H]2CSSC[C@H](NC(=O)[C@H](Cc3ccccc3)NC1=O)C(=O)N[C@H]1CSSC[C@H](NC(=O)[C@H](CCCCN)NC(=O)[C@H](CO)NC(=O)[C@H](CCCNC(=N)N)NC(=O)[C@H](Cc3c[nH]cn3)NC(=O)[C@@H]3CSSC[C@H](NC(=O)CNC1=O)C(=O)N3)C(=O)NCC(=O)N[C@@H](CCSC)C(=O)N2 [Hepcidin-25],EC50,[1],14.7 nM
same,"stable at -80°C for, QC heparin plasma","in vitro [2]; QC heparin plasma samples, heavy hepcidin internal standard",at least 1.5 years
same,"stable at -80°C for, QC serum","in vitro [2]; QC serum samples, former hepcidin-24 internal standard",2 years
same,"Hepcidin level after 6 months at -80°C, EDTA plasma","in vitro [2]; average, 5 controls, CV 5",96%
same,"Hepcidin level after 6 months at -80°C, citrate plasma","in vitro [2]; average, 5 controls, CV 5",96%
same,remaining at 4320 h,in vitro [2]; heparin plasma,95%
same,remaining at 4320 h,in vitro [2]; serum,94%
same,average decrease in hepcidin-25 after 6 months at -80°C,"in vitro [2]; serum, heparin, EDTA and citrate plasma, 5 healthy volunteers, not significant",4–6%
same,remaining at 168 h,in vitro [3],99%
same,stability at room temperature,[4],1 days
same,remaining at 1 mnt,in vitro [5]; EDTA plasma,94%
same,remaining at 4 mnts,in vitro [5]; EDTA plasma,92%
same,remaining at 6 months,in vitro [5]; EDTA plasma,88%
same,remaining at 168 h,in vitro [5]; EDTA plasma,89%
same,remaining at 672 h,in vitro [5]; EDTA plasma,99%
same,remaining at 1 mnt,in vitro [5]; citrate plasma,95%
same,remaining at 4 mnts,in vitro [5]; citrate plasma,102%
same,remaining at 6 mnts,in vitro [5]; citrate plasma,97%
same,remaining at 168 h,in vitro [5]; citrate plasma,97%
same,remaining at 1 mnt,in vitro [5]; heparin plasma,92%
same,remaining at 4 mnts,in vitro [5]; heparin plasma,100%
same,remaining at 6 mnts,in vitro [5]; heparin plasma,83%
same,remaining at 168 h,in vitro [5]; heparin plasma,96%
same,remaining at 672 h,in vitro [5]; heparin plasma,97%
same,remaining at 1 mnt,in vitro [5]; serum,96%
same,remaining at 4 mnts,in vitro [5]; serum,98%
same,remaining at 6 mnts,in vitro [5]; serum,99%
same,remaining at 168 h,in vitro [5]; serum,97%
same,stable at -20°C for,EDTA and heparin plasma of 10 intensive care patients and 5 controls,at least 4 weeks
same,"Hepcidin level after one week at -20°C, EDTA plasma","average, % of fresh, 10 IC patients and 5 controls, CV (Hep-25/-24/-22/-20) 11/12/11/28, n = 15/8/6/9, hepcidin-20 unreliable (additional peak)",96%
same,hepcidin-25 relative to fresh samples upon freezing,"heparin samples at 7 days, -20°C, IC + control n = 15, CV 8%",95%
same,no significant change at -20°C for,"serum, heparin, EDTA and citrate plasma of healthy controls (n = 5)",at least 6 months
